Measurements reported in patent US8604217B2, “Compound, a process for its preparation, a pharmaceutical composition, use of a compound, a method for modulating or regulating serine/threonine kinases and a serine/threonine kinases modulating agent” (Selvita S.A., priority 2009, dated 2013).

Assays:
Assay in all cases: KinaseProfiler kinase panel
Format in all cases: biochemical
PKCμ(h) = PKCμ(h) (Homo sapiens (Human), UniProt Q15139)
PKD2(h) = PKD2(h) (Homo sapiens (Human), UniProt Q9BZL6)
Rsk2(h) = Rsk2(h) (Homo sapiens (Human), UniProt P51812)
Rsk2(h), sequence (P51812 whole entry): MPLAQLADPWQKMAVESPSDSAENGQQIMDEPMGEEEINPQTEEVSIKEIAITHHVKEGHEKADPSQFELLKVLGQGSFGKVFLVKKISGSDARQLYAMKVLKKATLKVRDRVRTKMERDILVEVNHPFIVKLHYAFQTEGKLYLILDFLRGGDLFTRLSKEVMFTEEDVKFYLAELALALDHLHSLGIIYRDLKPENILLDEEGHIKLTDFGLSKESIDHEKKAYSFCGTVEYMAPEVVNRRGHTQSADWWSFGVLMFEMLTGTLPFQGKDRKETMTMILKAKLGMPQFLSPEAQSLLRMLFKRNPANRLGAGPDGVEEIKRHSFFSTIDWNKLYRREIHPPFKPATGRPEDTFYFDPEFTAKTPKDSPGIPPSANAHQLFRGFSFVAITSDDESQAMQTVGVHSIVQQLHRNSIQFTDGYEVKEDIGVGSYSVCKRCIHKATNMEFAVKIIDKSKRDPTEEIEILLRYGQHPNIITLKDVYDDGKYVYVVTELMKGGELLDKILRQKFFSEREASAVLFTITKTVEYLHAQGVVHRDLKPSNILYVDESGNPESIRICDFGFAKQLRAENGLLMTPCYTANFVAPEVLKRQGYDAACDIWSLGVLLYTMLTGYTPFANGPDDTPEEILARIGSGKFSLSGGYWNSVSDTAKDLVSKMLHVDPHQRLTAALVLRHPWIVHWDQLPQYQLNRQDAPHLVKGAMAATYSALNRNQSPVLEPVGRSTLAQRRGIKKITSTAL

MINK(h) = MINK(h) (Homo sapiens (Human), UniProt Q8N4C8)
MINK(h), sequence (Q8N4C8 whole entry): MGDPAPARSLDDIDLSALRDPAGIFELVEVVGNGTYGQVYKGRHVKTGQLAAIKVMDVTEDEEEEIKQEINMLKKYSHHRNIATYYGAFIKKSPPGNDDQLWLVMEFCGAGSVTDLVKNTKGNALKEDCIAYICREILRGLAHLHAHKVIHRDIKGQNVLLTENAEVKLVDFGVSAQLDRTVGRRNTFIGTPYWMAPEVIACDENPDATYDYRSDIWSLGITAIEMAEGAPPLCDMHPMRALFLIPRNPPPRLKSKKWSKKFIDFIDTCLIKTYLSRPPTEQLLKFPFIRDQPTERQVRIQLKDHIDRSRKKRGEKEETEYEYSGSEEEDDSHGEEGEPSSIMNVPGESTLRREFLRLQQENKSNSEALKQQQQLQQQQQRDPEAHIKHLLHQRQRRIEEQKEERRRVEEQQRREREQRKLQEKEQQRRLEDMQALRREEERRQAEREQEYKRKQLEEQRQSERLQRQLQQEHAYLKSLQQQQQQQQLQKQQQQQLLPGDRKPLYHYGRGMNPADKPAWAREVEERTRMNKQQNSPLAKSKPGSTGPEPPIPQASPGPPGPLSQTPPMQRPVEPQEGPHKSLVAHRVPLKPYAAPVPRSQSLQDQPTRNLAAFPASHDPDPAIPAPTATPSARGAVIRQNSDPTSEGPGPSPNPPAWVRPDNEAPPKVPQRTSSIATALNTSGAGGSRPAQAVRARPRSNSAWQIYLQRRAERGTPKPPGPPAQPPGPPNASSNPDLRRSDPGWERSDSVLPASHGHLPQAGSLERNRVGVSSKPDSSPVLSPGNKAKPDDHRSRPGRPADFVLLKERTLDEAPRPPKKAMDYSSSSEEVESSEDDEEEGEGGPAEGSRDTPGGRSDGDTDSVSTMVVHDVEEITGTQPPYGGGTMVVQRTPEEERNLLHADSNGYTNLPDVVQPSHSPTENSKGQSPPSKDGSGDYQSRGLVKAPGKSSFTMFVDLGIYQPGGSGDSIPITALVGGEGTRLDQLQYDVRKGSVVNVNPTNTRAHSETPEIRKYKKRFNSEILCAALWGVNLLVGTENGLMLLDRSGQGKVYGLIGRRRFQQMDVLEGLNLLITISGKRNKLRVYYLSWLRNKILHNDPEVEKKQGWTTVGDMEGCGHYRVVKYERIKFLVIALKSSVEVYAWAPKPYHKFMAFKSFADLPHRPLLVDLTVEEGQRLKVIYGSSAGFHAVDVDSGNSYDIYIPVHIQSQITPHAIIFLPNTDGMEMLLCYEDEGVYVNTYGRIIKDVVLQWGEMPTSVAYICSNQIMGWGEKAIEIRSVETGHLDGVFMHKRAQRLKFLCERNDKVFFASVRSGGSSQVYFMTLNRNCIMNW

PKD2(h), sequence (Q9BZL6 whole entry): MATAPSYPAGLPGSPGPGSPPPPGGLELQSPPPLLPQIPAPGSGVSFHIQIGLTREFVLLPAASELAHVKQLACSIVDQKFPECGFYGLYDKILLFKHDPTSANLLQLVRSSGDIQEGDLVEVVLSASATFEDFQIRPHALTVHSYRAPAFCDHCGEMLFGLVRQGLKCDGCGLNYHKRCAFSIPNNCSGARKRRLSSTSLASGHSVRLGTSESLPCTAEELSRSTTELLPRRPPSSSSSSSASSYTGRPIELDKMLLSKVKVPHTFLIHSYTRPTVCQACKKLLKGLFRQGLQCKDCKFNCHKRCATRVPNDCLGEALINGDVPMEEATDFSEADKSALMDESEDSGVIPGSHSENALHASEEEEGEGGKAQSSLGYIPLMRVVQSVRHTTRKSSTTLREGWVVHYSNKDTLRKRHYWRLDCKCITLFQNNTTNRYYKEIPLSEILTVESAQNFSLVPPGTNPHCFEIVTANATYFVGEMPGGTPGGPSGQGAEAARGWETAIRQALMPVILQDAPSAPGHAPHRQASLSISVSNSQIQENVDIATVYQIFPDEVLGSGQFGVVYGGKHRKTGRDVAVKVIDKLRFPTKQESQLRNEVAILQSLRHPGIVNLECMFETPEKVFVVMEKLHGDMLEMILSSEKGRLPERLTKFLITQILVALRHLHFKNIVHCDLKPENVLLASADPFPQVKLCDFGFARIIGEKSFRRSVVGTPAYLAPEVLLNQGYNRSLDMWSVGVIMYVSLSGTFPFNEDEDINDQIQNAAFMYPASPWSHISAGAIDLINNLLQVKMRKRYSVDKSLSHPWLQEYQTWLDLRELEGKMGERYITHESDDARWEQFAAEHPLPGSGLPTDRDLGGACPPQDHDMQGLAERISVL
PKCμ(h), sequence (Q15139 whole entry): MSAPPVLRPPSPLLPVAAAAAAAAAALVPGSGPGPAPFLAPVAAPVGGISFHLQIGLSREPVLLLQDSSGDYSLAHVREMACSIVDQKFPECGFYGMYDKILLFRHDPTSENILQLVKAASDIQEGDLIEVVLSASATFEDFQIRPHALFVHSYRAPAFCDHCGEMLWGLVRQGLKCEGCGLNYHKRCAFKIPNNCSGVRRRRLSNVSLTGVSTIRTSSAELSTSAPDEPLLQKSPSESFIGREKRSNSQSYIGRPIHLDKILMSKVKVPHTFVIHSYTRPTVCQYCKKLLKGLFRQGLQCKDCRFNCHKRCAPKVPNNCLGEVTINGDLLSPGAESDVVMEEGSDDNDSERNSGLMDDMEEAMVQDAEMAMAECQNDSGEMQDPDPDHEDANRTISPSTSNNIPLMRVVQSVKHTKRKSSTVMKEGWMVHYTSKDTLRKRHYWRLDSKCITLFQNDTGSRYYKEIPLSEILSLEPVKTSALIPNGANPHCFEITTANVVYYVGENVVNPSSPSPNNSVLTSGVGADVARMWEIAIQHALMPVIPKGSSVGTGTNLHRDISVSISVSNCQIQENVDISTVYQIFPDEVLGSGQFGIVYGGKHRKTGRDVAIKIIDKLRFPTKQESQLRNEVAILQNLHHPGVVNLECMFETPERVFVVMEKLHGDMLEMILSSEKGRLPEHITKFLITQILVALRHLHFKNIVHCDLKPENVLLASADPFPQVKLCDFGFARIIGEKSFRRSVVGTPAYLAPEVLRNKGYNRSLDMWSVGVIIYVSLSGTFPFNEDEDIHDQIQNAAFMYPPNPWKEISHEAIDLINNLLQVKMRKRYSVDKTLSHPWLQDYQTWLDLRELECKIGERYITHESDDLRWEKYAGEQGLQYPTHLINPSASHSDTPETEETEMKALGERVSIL

remaining activity at 1 µM (PKCμ(h)): 30%
remaining activity at 1 µM (PKD2(h)): 58%
remaining activity at 1 µM (Rsk2(h)): 81%
remaining activity at 1 µM (MINK(h)): 87%
Structure (SMILES): CCn1c(N2CCNCC2)nc2c(Br)c(Br)c(Br)c(Br)c21 [Compound 416, 4,5,6,7-tetrabromo-1-ethyl-2-(piperazin-1-yl)-1H-benzo[d]imidazole]
